Read-outs that look alike come from different tables or passages of the source.
Columns and labels:
Hela cells = assay: DAPI staining; format: cell-based, human; settings: FIG. 3
Procedure: Hela cells grown on poly-L-Lys-coated coverslips were fixed with 2% paraformaldehyde/MeOH.
Cellular DNA was stained with DAPI staining buffer (100 mM Tris (pH 7.4), 150 mM NaCl, 1 mM CaCl2, 0.5 mM MgCl2, 0.1% nonidet P-40, 1 μg/ml DAPI (Molecular Probes)). All the steps were performed at room temperature, and cells were washed two times with PBS after each step. Finally, cells were mounted in 80% glycerol/PBS.

EcParvulin = EcParvulin (Escherichia coli, UniProt P0A9L5); assay: protease-coupled PPIase assay, EcParvulin; format: biochemical
Chain of EcParvulin (P0A9L5 whole entry): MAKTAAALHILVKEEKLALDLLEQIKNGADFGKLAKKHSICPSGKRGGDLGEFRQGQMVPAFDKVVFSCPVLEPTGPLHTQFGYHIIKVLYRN

[1] = system: cyclin D1 in MCF-7 and HeLa cells; assay: Cyclin D1 down regulation (western blot marker analysis); format: cell-based, human
Procedure: MCF-7 (5×10^5 cells/well) and HeLa cells (1.5×10^5 cells/well) were seeded in 6-well plates and incubated at 37° C. over night. Compounds or DMSO (final solvent concentration 0.1%) were added to the cells and incubated for different times as indicated. Subsequently, cells were lysed in RIPA buffer for 30 min on ice and centrifuged for 20 min at 4° C. After addition of electrophoresis sample buffer (4×) and 50 mM DTT to the supernatant, samples were boiled for 4 min at 95° C. Samples (equivalent to 2×10^5 cells/well) were run on a 15% SDS gel followed by blotting onto PVDF membrane.
The membrane was blocked for 1 h in 10 mM Tris (pH 7.5), 100 mM NaCl, 0.1% Tween-20 and 5% non-fat dry milk (blocking buffer) and incubated for 1 h with mouse anti-hCyclin D1 monoclonal antibody (clone DCS-6, BD Biosciences) diluted to 1 μg/ml in blocking buffer. Blots were washed 3×10 min with 10 mM Tris (pH 7.5), 100 mM NaCl, 0.1% Tween-20 (washing buffer) and incubated with 0.7 μg/ml peroxidase-conjugated sheep anti-mouse IgG (Sigma) in blocking buffer for 1 h. After washing 3×10 min with washing buffer, the plot was developed with the ECL+ detection kit (Amersham Biosciences).

hPin1 = hPin1 (Homo sapiens, UniProt Q13526); assay: protease-coupled PPIase assay, hPin1; format: biochemical; settings: 6 nM hPin1, substrate Ac-Ala-Ala-Ser(PO3H2)-Pro-Arg-pNA, trypsin, pH 7.8, 6° C.; read-out: IC50 class, Target T-1 (hPin1)
Chain of hPin1 (Q13526 whole entry): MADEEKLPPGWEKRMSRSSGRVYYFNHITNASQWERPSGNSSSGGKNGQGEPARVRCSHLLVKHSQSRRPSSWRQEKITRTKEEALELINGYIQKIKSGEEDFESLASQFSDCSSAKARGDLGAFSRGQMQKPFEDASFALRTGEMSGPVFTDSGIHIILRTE

hFKBP12 = hFKBP12 (Homo sapiens, UniProt P62942); assay: protease-coupled PPIase assay, hFKBP12; format: biochemical; settings: 20 nM hFKBP12, substrate Suc-Ala-Phe-Pro-Phe-pNA, chymotrypsin, pH 7.8, 6° C.; read-out: IC50 class, Target T-2 (hFKBP12)
Chain of hFKBP12 (P62942 whole entry): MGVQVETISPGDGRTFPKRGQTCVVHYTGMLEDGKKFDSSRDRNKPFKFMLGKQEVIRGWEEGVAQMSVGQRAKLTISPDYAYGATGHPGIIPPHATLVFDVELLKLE

[2] = WST-1 cytotoxicity assay, HL-60; format: cell-based; settings: human, HL-60 cells (acute myeloid leukemia); WST-1, 48 h incubation; read-out: EC50 class, cytotoxic effect, CL-1 (HL-60)
Procedure: (§1) For this cytotoxic evaluation of the compounds the commercial available WST-1 assay (Roche) was used according to the manufacturer's instructions. The assay is based on the cleavage of the tetrazolium salt WST-1 by mitochondrial dehydrogenases found in viable cells. In general compounds were added to cells cultured in 96-well plates at 37° C. After 48 h of incubation 10 μl of WST-1 solution was added. The formazan dye was analyzed with an ELISA plate reader at (450 vs. 620) nm. CL-1: human acute myeloid leukemia, HL-60 CL-2: human cervix carcinoma, HeLa CL-3: human prostate carcinoma, PC-3 CL-4: human colon adenocarcinoma, Caco-2 CL-5: human breast adenocarcinoma, MCF-7

[3] = WST-1 cytotoxicity assay, Caco-2; format: cell-based; settings: human, Caco-2 cells (colon adenocarcinoma); WST-1, 48 h incubation; read-out: EC50 class, cytotoxic effect, CL-4 (Caco-2)
Procedure: as §1

hCyp18 = hCyp18 (Homo sapiens, UniProt P62937); assay: protease-coupled PPIase assay, hCyp18; format: biochemical; settings: 10 nM hCyp18, substrate Suc-Ala-Phe-Pro-Phe-pNA, chymotrypsin, pH 7.8, 6° C.; read-out: IC50 class, Target T-3 (hCyp18)
Chain of hCyp18 (P62937 whole entry): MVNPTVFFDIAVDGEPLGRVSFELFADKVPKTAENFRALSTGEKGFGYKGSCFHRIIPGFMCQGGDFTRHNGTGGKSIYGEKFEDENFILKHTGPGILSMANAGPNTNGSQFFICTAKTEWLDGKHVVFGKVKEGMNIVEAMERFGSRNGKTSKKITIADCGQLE

LpCyp18 = LpCyp18 (Legionella pneumophila, UniProt Q5ZRZ4); assay: biochemical; settings: IC50 class, Target T-4 (LpCyp18)
Chain of LpCyp18 (Q5ZRZ4 1-164): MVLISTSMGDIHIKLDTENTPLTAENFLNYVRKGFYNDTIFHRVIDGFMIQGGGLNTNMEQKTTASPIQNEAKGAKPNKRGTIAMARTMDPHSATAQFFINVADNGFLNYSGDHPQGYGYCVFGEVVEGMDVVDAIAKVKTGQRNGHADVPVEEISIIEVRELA

[4] = WST-1 cytotoxicity assay, MCF-7; format: cell-based; settings: human, MCF-7 cells (breast adenocarcinoma); WST-1, 48 h incubation; read-out: EC50 class, cytotoxic effect, CL-5 (MCF-7)
Procedure: as §1

[5] = WST-1 cytotoxicity assay, PC-3; format: cell-based; settings: human, PC-3 cells (prostate carcinoma); WST-1, 48 h incubation; read-out: EC50 class, cytotoxic effect, CL-3 (PC-3)
Procedure: as §1

[6] = WST-1 cytotoxicity assay, HeLa; format: cell-based; settings: human, HeLa cells (cervix carcinoma); WST-1, 48 h incubation; read-out: EC50 class, cytotoxic effect, CL-2 (HeLa)
Procedure: as §1

Trypsin = molecular target: T1, Trypsin (UniProt P00760); assay: trypsin assay; format: biochemical; settings: 0.1 μg/ml trypsin, 120 μM Ac-Ala-Ala-Ser(PO3H2)-Pro-Arg-pNA, pH 7.8, 30° C., 30 min incubation; read-out: IC50 class, Target T-7 (Trypsin)
T1 sequence (P00760 1-246): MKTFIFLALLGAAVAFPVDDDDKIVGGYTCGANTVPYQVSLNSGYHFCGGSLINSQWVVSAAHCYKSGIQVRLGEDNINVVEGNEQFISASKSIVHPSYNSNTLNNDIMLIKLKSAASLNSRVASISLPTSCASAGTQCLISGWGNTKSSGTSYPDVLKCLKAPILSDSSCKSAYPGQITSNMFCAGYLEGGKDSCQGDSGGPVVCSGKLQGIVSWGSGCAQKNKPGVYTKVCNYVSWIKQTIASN
Procedure: (§2) In order to investigate the impact of some of the inventive compounds on the activity of key proteases the following assay was performed: Protease activities were measured spectrophotometrically at 30° C. according to Schomburg and Salzmann (Schomburg, B.; Salzmann M. GBF: Enzyme Handbook. Springer Verlag, Berlin Heidelberg, 1991) and Bergmeyer et al. (Bergmeyer, H. U.; Bergmeyer, J.; Graβl, M. Methods of Enzymatic Analysis, Vol. V Enzymes 3: Peptides, Proteinases and Their Inhibitors. pp 55-371, VCH, Weinheim, 1988). The release of 4-nitroaniline was determined at 390 nm with a Spectramax Plus UV/Vis spectrophotometer (Molecular Devices). The cathepsin B assay was performed in a reaction mixture containing 0.2 μg/ml cathepsin B, 2 mM Z-Arg-Arg-pNA in 88 mM KH2PO4, 12 mM Na2HPO4, 1.33 mM EDTA, 0.03% Brij 35 (pH 5.8). The trypsin assay was carried out in a reaction mixture containing 0.1 μg/ml trypsin and 120 μM Ac-Ala-Ala-Ser(PO3H2)-Pro-Arg-pNA in 35 mM HEPES (pH 7.8) and the papain assay in a mixture consisting of 16 μg/ml papain and 2 mM Bz-DL-Arg-pNA in 10 mM Na2HPO4, 2 mM L-Cys, 5 mM EDTA (pH 6.5). In general, reactions were started by addition of peptide substrate after a 30 min incubation of 1-100 μM effector with given concentrations of enzyme.

cathepsin B = cathepsin B (Homo sapiens, UniProt P07858); assay: cathepsin B assay; format: biochemical; settings: 0.2 μg/ml cathepsin B, 2 mM Z-Arg-Arg-pNA, pH 5.8, 30° C., 30 min incubation; read-out: IC50 class, Target T-8 (Cathepsin)
Procedure: as §2

[7] = system: tumor cell lines (HL-60, HeLa, PC-3, Caco-2, MCF-7); assay: WST-1 cytotoxicity assay, tumor cell lines (panel statement); format: cell-based, human; settings: WST-1, 48 h; table 4
Procedure: as §1

HL-60 cells = assay: FACS measurements and TUNEL assay (Apo-Direct kit); format: cell-based, human; settings: FIG. 2
Description: Enari M. Sakahira H. Yokoyama H. Okawa K. Iwamatsu A. Nagata S. A caspase-activated DNase that degrades DNA during apoptosis, and its inhibitor ICAD [erratum appears in Nature 1998 May 28; 393(6683):396.]. Nature. 391:43-50, 1998 • Darzynkiewicz Z. Juan G. Li X. Gorczyca W. Murakami T. Traganos F. Cytometry in cell necrobiology: analysis of apoptosis and accidental cell death (necrosis). Cytometry. 27:1-20, 1997
Apoptotic HL-60 cells were detected by FACS analysis of FITC-dUTP-labelled DNA breaks using the Apo-Direct kit (BD-Pharmingen) according to the manufacturer's protocol.

Papain = molecular target: T2, Papain (Carica papaya, UniProt P00784); assay: papain assay; format: biochemical; settings: 16 μg/ml papain, 2 mM Bz-DL-Arg-pNA, pH 6.5, 30° C., 30 min incubation; read-out: IC50 class, Target T-6 (Papain)
T2 sequence (P00784 134-345): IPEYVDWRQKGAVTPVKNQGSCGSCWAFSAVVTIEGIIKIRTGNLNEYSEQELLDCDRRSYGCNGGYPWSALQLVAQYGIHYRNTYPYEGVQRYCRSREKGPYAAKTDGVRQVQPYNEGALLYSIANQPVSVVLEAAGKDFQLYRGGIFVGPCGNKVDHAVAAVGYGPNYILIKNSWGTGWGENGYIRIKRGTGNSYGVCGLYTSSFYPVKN
Procedure: as §2

Row | Compound | induction of apoptosis (DAPI staining, fluorescence microscopy) (Hela cells) | IC50 (EcParvulin; 20 nM EcParvulin, substrate Suc-Ala-Phe-Pro-Phe-pNA, chymotrypsin, pH 7.8, 6° C., read-out: IC50 class, Target T-5 (EcParv)) | cyclin D1 down regulation [1] | IC50 (hPin1) | IC50 (hFKBP12) | EC50 at 48 h [2] | EC50 at 48 h [3] | IC50 (hCyp18) | IC50 (LpCyp18) | EC50 at 48 h [4] | EC50 at 48 h [5] | EC50 at 48 h [6] | IC50 (Trypsin) | IC50 (cathepsin B) | cytotoxic effect on the tumor cell lines tested [7] | induction of apoptosis (FACS analysis of FITC-dUTP-labelled DNA breaks) (HL-60 cells) | IC50 (Papain) | IC50 (EcParvulin)
1 | CC(C)(C)CC(C)(C)NC(=O)Nc1cc(Cl)cc(Cl)c1O [Compound 30] | induce apoptosis | > 100 µM | particular relevance | 1 to 10 µM | > 100 µM | < 10 µM | < 10 µM | > 100 µM | > 100 µM | – | – | – | – | – | – | – | – | –
2 | Cc1c(Cl)cc(NC(=S)Nc2ccccc2C(F)(F)F)c(O)c1Cl [Compound 261] | – | – | – | – | – | < 10 µM | 10 to 50 µM | – | – | 10 to 50 µM | 10 to 50 µM | 10 to 50 µM | – | – | – | – | – | –
3 | Cc1c(Cl)cc(NC(=S)Nc2ccc(C(F)(F)F)cc2)c(O)c1Cl [Compound 264] | induce apoptosis | – | particular relevance | < 1 µM | – | < 10 µM | < 10 µM | – | – | < 10 µM | < 10 µM | < 10 µM | > 100 µM | > 100 µM | particular relevance | induce apoptosis | > 100 µM | –
4 | Oc1c(NCc2ccccc2Sc2ccc(Cl)cc2)ccc(F)c1F [Compound 399] | induce apoptosis | – | particular relevance | < 1 µM | > 100 µM | < 10 µM | – | 50 to 100 µM | 50 to 100 µM | < 10 µM | < 10 µM | < 10 µM | – | 10 to 50 µM | particular relevance | – | > 100 µM | 10 to 50 µM
5 | Cc1c(Cl)cc(NC(=O)NCCCCCCNC(=O)Nc2cc(Cl)c(C)c(Cl)c2O)c(O)c1Cl [Compound 673] | – | – | particular relevance | < 1 µM | – | – | – | – | – | < 10 µM | – | – | – | – | particular relevance | – | – | –
6 | CC(C)(C)CC(C)(C)NC(=O)Nc1cc(Cl)c(O)c(Cl)c1 [Compound 703] | – | – | – | < 1 µM | > 100 µM | 10 to 50 µM | 10 to 50 µM | > 100 µM | > 100 µM | – | 10 to 50 µM | 10 to 50 µM | 50 to 100 µM | > 100 µM | particular relevance | – | > 100 µM | 1 to 10 µM
7 | CC(CC(=O)Nc1cc(Cl)c(O)c(Cl)c1)CC(C)(C)C (centres unmarked) [Compound 1273] | – | – | – | < 1 µM | > 100 µM | 10 to 50 µM | 10 to 50 µM | > 100 µM | > 100 µM | – | 10 to 50 µM | 50 to 100 µM | > 100 µM | > 100 µM | particular relevance | – | > 100 µM | 1 to 10 µM
8 | CC(C)=CC(=O)Nc1cc(Cl)c(O)c(Cl)c1 [Compound 1296] | – | – | – | 1 to 10 µM | > 100 µM | 50 to 100 µM | – | 10 to 50 µM | > 100 µM | – | – | – | > 100 µM | > 100 µM | – | – | > 100 µM | 10 to 50 µM

From patent US20110065760A1, “COMPOUNDS FOR THE INHIBITION OF ROTAMASES AND USE THEREOF” (Jerini AG, priority 2002, published 2011)
